{"source": "patent US7329749B2", "about": "“Piperazinylcarbonylquinolines and -isoquinolines” (Merck Patent Gesellschaft, priority 2001, dated 2008)", "assay_type_in_all_cases": "binding", "key": {"5-HT2A receptor": {"molecular_target": "T1, 5-HT2A receptor (Rattus norvegicus, UniProt P14842)", "T1 construct": "Frontal rat cortex is homogenised in ice-cold buffer; from tissue; host or cells: rat frontal cortex homogenate", "T1 sequence (P14842 whole entry)": "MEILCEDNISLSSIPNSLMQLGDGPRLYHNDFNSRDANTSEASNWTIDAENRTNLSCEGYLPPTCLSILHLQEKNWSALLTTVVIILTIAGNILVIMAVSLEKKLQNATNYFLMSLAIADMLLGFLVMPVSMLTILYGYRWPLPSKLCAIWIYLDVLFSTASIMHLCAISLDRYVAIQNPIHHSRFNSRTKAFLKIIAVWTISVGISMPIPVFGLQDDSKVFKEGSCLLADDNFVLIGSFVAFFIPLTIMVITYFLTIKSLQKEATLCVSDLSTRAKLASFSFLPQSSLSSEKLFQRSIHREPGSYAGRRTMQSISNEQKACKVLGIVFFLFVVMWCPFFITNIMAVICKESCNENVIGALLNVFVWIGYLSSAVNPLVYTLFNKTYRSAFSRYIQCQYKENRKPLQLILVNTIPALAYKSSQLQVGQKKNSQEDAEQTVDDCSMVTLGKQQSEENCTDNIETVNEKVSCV", "test": "affinity to 5-HT2A receptors, [3H]ketanserine displacement (Example A1)", "procedure": "For in-vitro detection of the affinity to 5-HT2A receptors, the following test (Example A1), for example, can be used. The 5-HT2A receptors are exposed both to [^3H]ketanserine (a substance which is known for its affinity to the receptor) and also to the test compound. The decrease in the affinity of [^3H]ketanserine to the receptor is an indication of the affinity of the test substance to the 5-HT2A receptor. The detection is carried out analogously to the description by J. E. Leysen et al., Molecular Pharmacology, 1982, 21: 301-314, or as also described, for example, in EP 0320983.\nPreparation of a suspension of 5-HT2A receptors: Frontal rat cortex is homogenised in ice-cold buffer. The homogenate is centrifuged at 4° C. and 50,000×for 10 minutes. The pellet is re-suspended in 2.5 ml of ice-cold tris buffer, made up with 10 ml of additional buffer and centrifuged as described. The pellet is then re-suspended in buffer and diluted to give a homogenate which comprises 60 mg of material/ml. 0.1 ml of the suspension, 100 μl of a 5 nM solution of [^3H]ketanserine, 100 μl of a solution of the test compound (concentration in the range from 10^−5 to 10^−10 mol per litre) are introduced into the incubation tubes and made up to 1 ml with buffer. The tubes are incubated at 37° C. for 15 minutes. […] The filters are analysed by liquid scintillation spectrometry in 8 ml of Triton-X scintillator liquid."}, "5-HT2C receptor": {"molecular_target": "5-HT2C receptor (Homo sapiens, UniProt P28335)", "sequence (P28335 33-458)": "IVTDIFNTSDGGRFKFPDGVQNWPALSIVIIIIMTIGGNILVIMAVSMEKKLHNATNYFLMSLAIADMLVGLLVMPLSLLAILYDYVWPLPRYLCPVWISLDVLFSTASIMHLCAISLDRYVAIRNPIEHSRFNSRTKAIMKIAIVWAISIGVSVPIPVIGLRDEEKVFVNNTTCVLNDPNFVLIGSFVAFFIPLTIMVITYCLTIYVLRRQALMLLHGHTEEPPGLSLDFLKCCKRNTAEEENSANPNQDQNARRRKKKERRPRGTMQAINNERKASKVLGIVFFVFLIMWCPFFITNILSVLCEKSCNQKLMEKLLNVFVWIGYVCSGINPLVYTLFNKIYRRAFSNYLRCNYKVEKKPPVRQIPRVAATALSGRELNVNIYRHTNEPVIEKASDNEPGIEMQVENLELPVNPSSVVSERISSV", "test": "IC50 at the 5-HT2C receptor"}, "5-HT1A receptor": {"molecular_target": "T2, 5-HT1A receptor (Homo sapiens, UniProt P08908)", "T2 sequence (P08908 1-422)": "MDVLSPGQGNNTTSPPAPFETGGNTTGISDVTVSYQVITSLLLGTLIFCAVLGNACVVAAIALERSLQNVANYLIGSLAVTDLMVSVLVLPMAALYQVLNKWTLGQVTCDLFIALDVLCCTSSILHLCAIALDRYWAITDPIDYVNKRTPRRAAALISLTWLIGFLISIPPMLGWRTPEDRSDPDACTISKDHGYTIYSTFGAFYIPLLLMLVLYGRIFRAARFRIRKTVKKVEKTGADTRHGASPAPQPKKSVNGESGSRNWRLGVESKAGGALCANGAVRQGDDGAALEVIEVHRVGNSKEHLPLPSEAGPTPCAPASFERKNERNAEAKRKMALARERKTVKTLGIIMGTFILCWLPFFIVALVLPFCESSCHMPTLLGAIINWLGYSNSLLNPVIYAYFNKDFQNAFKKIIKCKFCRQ", "test": "IC50 at the 5-HT1A receptor"}, "5-HT1B receptor": {"molecular_target": "5-HT1B receptor (Homo sapiens, UniProt P28222)", "sequence (P28222 whole entry)": "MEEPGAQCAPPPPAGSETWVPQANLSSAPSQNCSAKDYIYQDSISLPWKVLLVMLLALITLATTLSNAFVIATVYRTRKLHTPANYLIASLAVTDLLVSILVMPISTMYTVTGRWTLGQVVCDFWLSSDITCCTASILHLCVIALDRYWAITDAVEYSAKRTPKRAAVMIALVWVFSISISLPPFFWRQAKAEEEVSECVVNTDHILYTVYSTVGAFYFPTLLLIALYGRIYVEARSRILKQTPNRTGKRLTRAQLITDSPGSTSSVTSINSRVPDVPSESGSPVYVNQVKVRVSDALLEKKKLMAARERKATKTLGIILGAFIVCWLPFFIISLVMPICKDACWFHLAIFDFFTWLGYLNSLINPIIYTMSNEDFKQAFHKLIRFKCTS", "test": "IC50 at the 5-HT1B receptor"}, "5-HT1D receptor": {"molecular_target": "5-HT1D receptor (Homo sapiens, UniProt P28221)", "sequence (P28221 whole entry)": "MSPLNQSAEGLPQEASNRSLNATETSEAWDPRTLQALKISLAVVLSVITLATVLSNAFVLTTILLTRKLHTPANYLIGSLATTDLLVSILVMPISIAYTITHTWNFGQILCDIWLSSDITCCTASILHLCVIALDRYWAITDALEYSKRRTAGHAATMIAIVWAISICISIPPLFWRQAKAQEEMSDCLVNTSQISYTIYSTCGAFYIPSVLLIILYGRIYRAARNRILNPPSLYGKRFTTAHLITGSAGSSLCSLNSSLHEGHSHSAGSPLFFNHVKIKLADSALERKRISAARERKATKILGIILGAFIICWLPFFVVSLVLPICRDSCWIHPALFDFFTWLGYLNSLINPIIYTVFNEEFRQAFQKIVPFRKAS", "test": "IC50 at the 5-HT1D receptor"}, "D2 receptor": {"molecular_target": "D2 receptor (Homo sapiens, UniProt P14416)", "sequence (P14416 whole entry)": "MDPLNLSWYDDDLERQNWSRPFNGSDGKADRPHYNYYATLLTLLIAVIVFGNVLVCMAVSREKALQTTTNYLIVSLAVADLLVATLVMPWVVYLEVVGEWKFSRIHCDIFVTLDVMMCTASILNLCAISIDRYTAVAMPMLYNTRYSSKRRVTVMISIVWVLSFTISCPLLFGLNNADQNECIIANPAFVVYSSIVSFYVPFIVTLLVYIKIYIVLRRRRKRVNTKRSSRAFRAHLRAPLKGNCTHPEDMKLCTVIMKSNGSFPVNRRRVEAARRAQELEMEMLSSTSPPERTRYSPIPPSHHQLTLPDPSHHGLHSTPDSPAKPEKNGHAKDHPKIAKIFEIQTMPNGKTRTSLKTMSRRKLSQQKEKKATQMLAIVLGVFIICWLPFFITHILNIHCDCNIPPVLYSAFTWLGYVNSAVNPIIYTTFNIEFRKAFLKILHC", "test": "IC50 at the D2 receptor"}}, "data": [{"smiles": "O=C(c1nccc2ccccc12)N1CCN(CCc2ccc(F)cc2)CC1", "note": "[Example 1, {4-[2-(4-fluorophenyl)ethyl]piperazin-1-yl}isoquinolin-1-ylmethanone]", "values": [{"measurement": "IC50", "setting": "5-HT2A receptor", "result": 1, "unit": "nM"}, {"measurement": "factor by which the affinities differ", "setting": "5-HT2A receptor; 5-HT2A versus 5-HT2C, 5-HT1A, 5-HT1B, 5-HT1D and D2 receptors", "result": "greater than 1000"}, {"measurement": "IC50", "setting": "5-HT2C receptor", "result": "> 1000", "unit": "nM"}, {"measurement": "IC50", "setting": "5-HT1A receptor", "result": "> 1000", "unit": "nM"}, {"measurement": "IC50", "setting": "5-HT1B receptor", "result": "> 1000", "unit": "nM"}, {"measurement": "IC50", "setting": "5-HT1D receptor", "result": "> 1000", "unit": "nM"}, {"measurement": "IC50", "setting": "D2 receptor", "result": "> 1000", "unit": "nM"}]}]}
